Patent publication US8178677B2, “Hydroxyalkyl substituted imidazoquinolines” (3M Innovative Properties Company, priority 2005, dated 2012)

Columns and labels:
[1] = test system: tumor necrosis factor (α) (TNF-α) induction in human peripheral blood mononuclear cells (PBMC); assay: Cytokine induction in human cells (PBMC): TNF-α secreted into culture media, ORIGEN M-Series immunoassay; format: cell-based; conditions: median where more than one experiment; for minimal effective concentration: Homo sapiens, PBMC, lowest tested concentration inducing TNF-α over 40 pg/mL, read-out: Minimum Effective Concentration (μM) TNF; for Maximal Response (pg/mL) TNF: maximal response in dose response curve, background-subtracted, reference-adjusted, * = below background of 40 pg/mL
Description: (§1) Cytokine Induction in Human Cells
(§2) An in vitro human blood cell system is used to assess cytokine induction. Activity is based on the measurement of interferon (α) and tumor necrosis factor (α) (IFN-α and TNF-α, respectively) secreted into culture media as described by Testerman et. al. in “Cytokine Induction by the Immunomodulators Imiquimod and S-27609”, Journal of Leukocyte Biology, 58, 365-372 (September, 1995).
(§3) Blood Cell Preparation for Culture
(§4) Whole blood from healthy human donors is collected by venipuncture into vacutainer tubes or syringes containing EDTA. Peripheral blood mononuclear cells (PBMC) are separated from whole blood by density gradient centrifugation using HISTOPAQUE-1077 (Sigma, St. Louis, Mo.) or Ficoll-Paque Plus (Amersham Biosciences Piscataway, N.J.). Blood is diluted 1:1 with Dulbecco's Phosphate Buffered Saline (DPBS) or Hank's Balanced Salts Solution (HBSS). Alternately, whole blood is placed in Accuspin (Sigma) or LeucoSep (Greiner Bio-One, Inc., Longwood, Fla.) centrifuge frit tubes containing density gradient medium. The PBMC layer is collected and washed twice with DPBS or HBSS and re-suspended at 4×10^6 cells/mL in RPMI complete. The PBMC suspension is added to 96 well flat bottom sterile tissue culture plates containing an equal volume of RPMI complete media containing test compound.
(§5) The compounds are solubilized in dimethyl sulfoxide (DMSO). The DMSO concentration should not exceed a final concentration of 1% for addition to the culture wells. The compounds are generally tested at concentrations ranging from 30-0.014 μM. Controls include cell samples with media only, cell samples with DMSO only (no compound), and cell samples with reference compound.
(§6) The solution of test compound is added at 60 μM to the first well containing RPMI complete and serial 3 fold dilutions are made in the wells. The PBMC suspension is then added to the wells in an equal volume, bringing the test compound concentrations to the desired range (usually 30-0.014 μM). The final concentration of PBMC suspension is 2×10^6 cells/mL. The plates are covered with sterile plastic lids, mixed gently and then incubated for 18 to 24 hours at 37° C. in a 5% carbon dioxide atmosphere.
(§7) Following incubation the plates are centrifuged for 10 minutes at 1000 rpm (approximately 200×g) at 4° C. The cell-free culture supernatant is removed and transferred to sterile polypropylene tubes. Samples are maintained at −30 to −70° C. until analysis. The samples are analyzed for IFN-α by ELISA and for TNF-α by IGEN/BioVeris Assay.
(§8) Interferon (α) and Tumor Necrosis Factor (α) Analysis
The TNF-α concentration is determined by ORIGEN M-Series Immunoassay and read on an IGEN M-8 analyzer from BioVeris Corporation, formerly known as IGEN International, Gaithersburg, Md. The immunoassay uses a human TNF-α capture and detection antibody pair (Catalog Numbers AHC3419 and AHC3712) from Biosource International, Camarillo, Calif. Results are expressed in pg/mL.
(§9) In total, the data output of the assay consists of concentration values of TNF-α and IFN-α (y-axis) as a function of compound concentration (x-axis).
Analysis of the data has two steps. First, the greater of the mean DMSO (DMSO control wells) or the experimental background (usually 20 pg/mL for IFN-α and 40 pg/mL for TNF-α) is subtracted from each reading. If any negative values result from background subtraction, the reading is reported as “*”, and is noted as not reliably detectable. In subsequent calculations and statistics, “*”, is treated as a zero. Second, all background subtracted values are multiplied by a single adjustment ratio to decrease experiment to experiment variability. The adjustment ratio is the area of the reference compound in the new experiment divided by the expected area of the reference compound based on the past 61 experiments (unadjusted readings). […]

[2] = test system: interferon (α) (IFN-α) induction in human peripheral blood mononuclear cells (PBMC); assay: Cytokine induction in human cells (PBMC): IFN-α secreted into culture media, ELISA; format: cell-based; conditions: lowest tested concentration inducing IFN-α over 20 pg/mL, median where more than one experiment, read-out: Minimum Effective Concentration (μM) IFN
Description: as §1, §2, §3, §4, §5, §6, §7, §8
IFN-α concentration is determined with a human multi-subtype calorimetric sandwich ELISA (Catalog Number 41105) from PBL Biomedical Laboratories, Piscataway, N.J. Results are expressed in pg/mL.
as §9
Analysis of the data has two steps. First, the greater of the mean DMSO (DMSO control wells) or the experimental background (usually 20 pg/mL for IFN-α and 40 pg/mL for TNF-α) is subtracted from each reading. If any negative values result from background subtraction, the reading is reported as “*”, and is noted as not reliably detectable. In subsequent calculations and statistics, “*”, is treated as a zero. Second, all background subtracted values are multiplied by a single adjustment ratio to decrease experiment to experiment variability. The adjustment ratio is the area of the reference compound in the new experiment divided by the expected area of the reference compound based on the past 61 experiments (unadjusted readings). […] The reference compound used is 2-[4-amino-2-ethoxymethyl-6,7,8,9-tetrahydro-α,α-dimethyl-1H-imidazo[4,5-c]quinolin-1-yl]ethanol hydrate (U.S. Pat. No. 5,352,784; Example 91) and the expected area is the sum of the median dose values from the past 61 experiments. […]

SMILES | melting point | minimal effective concentration [1] | minimal effective concentration [2] | Maximal Response (pg/mL) TNF [1]
CC(C)C(=O)NCCCn1c(CCO)nc2c(N)nc3ccccc3c21 [Example 141, N-{3-[4-Amino-2-(2-hydroxyethyl)-1H-imidazo[4,5-c]quinolin-1-yl]propyl}-2-methylpropionamide] | 196 to 198 °C | 30 µM | 0.04 µM | –
Nc1nc2ccccc2c2c1nc(CCO)n2CCCNC(=O)c1cc2ccccc2cn1 [Example 2, N-{3-[4-Amino-2-(2-hydroxyethyl)-1H-imidazo[4,5-c]quinolin-1-yl]propyl}isoquinoline-3-carboxamide] | 245 to 246 °C | 3.33 µM | 3.33 µM | –
CS(=O)(=O)NCCCCn1c(CCO)nc2c(N)nc3ccccc3c21 [Example 3, N-{4-[4-Amino-2-(2-hydroxyethyl)-1H-imidazo[4,5-c]quinolin-1-yl]butyl}methanesulfonamide] | 206 to 208 °C | > 30 µM | 0.37 µM | * (TNF below experimental background of 40 pg/mL.)

Continued, in another order:

melting point | SMILES | minimal effective concentration [1] | minimal effective concentration [2] | Maximal Response (pg/mL) TNF [1]
248 to 250 °C | CC(C)(N)Cn1c(CO)nc2c(N)nc3ccccc3c21 [Example 4, 1-(2-Amino-2-methylpropyl)-2-hydroxymethyl-1H-imidazo[4,5-c]quinolin-4-amine] | 3.33 µM | 0.37 µM | –
216 to 219 °C | CS(=O)(=O)NCCCCn1c(CO)nc2c(N)nc3ccccc3c21 [Example 147, N-[4-(4-amino-2-hydroxymethyl-1H-imidazo[4,5-c]quinolin-1-yl)butyl]methanesulfonamide] | > 30 µM | 0.37 µM | * (TNF below experimental background of 40 pg/mL.)
230 to 232 °C | CC(C)(Cn1c(CO)nc2c(N)nc3ccccc3c21)CS(C)(=O)=O [Example 143, {4-Amino-1-[2,2-dimethyl-3-(methylsulfonyl)propyl]-1H-imidazo[4,5-c]quinolin-2-yl}methanol] | 30 µM | 1.11 µM | –
